9 molecules from US4798807A, “Monoclonal antibodies and method for detecting dioxins and dibenzofurans” (priority 1986, dated 1989) can be followed below.

A value given as a limit tells only on which side of the number the result lay.

One assay addresses monoclonal antibody DD-3. Kind of assay: Competition ELISA with monoclonal antibody DD-3. The format is binding, BALB/c mice. The note with it: competitor vs monoclonal antibody DD-3; plate coated with A-triCDD-RSA. As to the method:
(§1) In this case the hybridomas were then screened for their ability to distinguish A-triCDD-BSA and A-triCDD-RSA from BSA and RSA. On the basis of this initial screen about 25 stable, antibody-producing colonies were isolated, subcloned, and frozen. The remaining clones were again screened for their abilities to recognize free TCDD in suspension. Experimentally, on the order of 10-100 nanograms of TCDD in hexane was dried, 0.5 ml of saline with BSA (1 mg/ml) was added and sonificated for 2 hrs. […] Identical procedures were followed for other dioxin isomers. A dilution series in microtiter plate wells was then made with the suspended TCDD, antibody adde, and the competition ELISA completed. Competition ELISA test procedures are discussed in detail in the following reference: Butt, W. R. (1984) "Practical Immunoassay: The State of the Art", Marcel Dekker, Inc., N.Y., N.Y.
(§2) A large part of the success that we have had in characterizing the binding specificities of our monoclonal antibodies comes from having developed a reliable competition ELISA protocol. Our preferred assay starts from stock solutions at 10 ppm in hexane of the various compounds listed in Table I. 10 μl of hexane solution is aliquoted into a small vial, evaporated under a stream of nitrogen gas, and 500 μl of a 1 mg/ml solution of BSA in phosphate buffered saline with 0.1% BSA is added. The vial is capped and placed in an ultrasonic cleaning waterbath for two hours. Two hours of sonification gives a more reproducible assay than does an hour. During the sonification, the hexane appears to evaporate completely, and one is left with an aqueous solution containing the dioxin. Microtiter plates coated with A-triCDD-RSA are blocked with a three percent solution of ovalbumin and a two-fold dilution series of sonificated dioxin-BSA is then made, covering the range 100 ppb-0.1 ppb. In each well of the plate 100 μl of the sonificated dioxin-BSA solution is mixed with n equal volume of antibody. The antibody partitions between the dioxin adsorbed to the BSA, and the A-tri-CDD-RSA on the plate.
(§3) A-TriCDD-RSA was adsorbed onto the surface of the wells of a microtiter plate. The various competitors listed were suspended in saline containing bovine serum albumin (BSA). These solutions were made by sonificating 10 μl of dioxin solution in hexane with 500 μl of saline-BSA. A dilution series of these dioxin-BSA solutions was then made covering the range of 100-0.2 ppb, and placed in the microtiter plate wells. An equal volume of DD-1 monoclonal antibody was then added, and allowed to react for 1 hour. Tne antibody binds either to the A-TriCDD-RSA on the plate or the dioxin in solution. After the hour, the solution phase is removed, the plate washed, and it is reincubated for an hour with peroxidase-conjugated goat-anti-mouse-immunoglobulins. A second washing is then done, and substrate (ABTS) added to the peroxidase. The enzyme-antibody conjugate and substrate function as a "developer", allowing the visualization of the DD-1 bound to the A-triCDD-RSA on the plate. Results are then expressed as a fraction of the response in wells with no competitor. […] At about 20 ppb of 2,3,7,8-TCDD the relative ELISA response is half of control, meaning that half the DD-1 antibody bound to the solution phase dioxin and half bound to the A-triCDD-RSA on the plate. For 1,2,3,7(8)-TCDD, 50% inhibition occurs at about 4 ppb, indicating the DD-1 prefers 1,2,3,7(8)-TCDD to 2,3,7,8-TCDD.
(§4) The FIGURE and Table II show representative competition data using several chlorinated compounds as competitors. From such data, one can determine the concentration required to inhibit antibody binding by 50% (I50). Table II lists the I50 for all compounds tested with the antibodies. In reporting these values, factors of two are about the limit of significance. […] The binding specificities of these antibodies are highly desirable, since they prefer the most toxic of the dioxin and dibenzofuran isomers.
In general terms: In an ELISA, binding on a coated surface is turned into a signal by an enzyme label.
For 1,2,3,6(7),7(8),8(9)-hexa-CD[, the “I50 (inhibits antibody binding by 50%)” value was > 200 ng.

For the molecule `ClC1C(Cl)C(Cl)C(Cl)C(Cl)C1Cl` (centres unmarked) [BHC], the “I50 (inhibits antibody binding by 50%)” value is given as > 2000 ng.

On to `Clc1ccccc1` [Chlorobenzene], for which the “I50 (inhibits antibody binding by 50%)” value is on record as > 2000 ng.

For 1,2,3,7,(8)-TCDD, the “I50 (inhibits antibody binding by 50%)” value amounted to 0.45 ng.

As to `ClC1=C(Cl)C2(Cl)C3C(Cl)C=CC3C1(Cl)C2(Cl)Cl` (centres unmarked) [Heptachlor], the “I50 (inhibits antibody binding by 50%)” value was > 2000 ng.

For `O=C1C2(Cl)C3(Cl)C4(Cl)C(Cl)(Cl)C5(Cl)C3(Cl)C1(Cl)C5(Cl)C24Cl` (centres unmarked) [Kepon], the “I50 (inhibits antibody binding by 50%)” value was > 2000 ng.

Turning to `Clc1cc(Cl)c(-c2ccccc2Cl)c(Cl)c1` [2,2',4,6-TCBP], the “I50 (inhibits antibody binding by 50%)” value is recorded as > 200 ng.

Regarding `ClC1=C(Cl)C2(Cl)C3C4CC(C5OC45)C3C1(Cl)C2(Cl)Cl` (centres unmarked) [Endrin], the “I50 (inhibits antibody binding by 50%)” value is on record as > 2000 ng.

For the molecule `Oc1cc(Cl)c(Cl)cc1O` [4,5-Dichlorocatechol], the “I50 (inhibits antibody binding by 50%)” value is > 2000 ng.

The target of another assay is monoclonal antibody DD-6. Kind of assay: Competition ELISA with monoclonal antibody DD-6. The format is binding, Biozzi mice. The note with it: competitor vs monoclonal antibody DD-6; plate coated with A-triCDD-RSA. As to the method:
as §1, §2, §3, §4
Consider 1,2,3,6(7),7(8),8(9)-hexa-CD[, for which the “I50 (inhibits antibody binding by 50%)” value is on record as > 200 ng.

For the molecule `ClC1C(Cl)C(Cl)C(Cl)C(Cl)C1Cl` (centres unmarked) [BHC], the “I50 (inhibits antibody binding by 50%)” value is > 2000 ng.

With `Clc1ccccc1` [Chlorobenzene], the “I50 (inhibits antibody binding by 50%)” value is reported as > 2000 ng.

In the case of 1,2,3,7,(8)-TCDD, the “I50 (inhibits antibody binding by 50%)” value was determined as 0.15 ng.

For `ClC1=C(Cl)C2(Cl)C3C(Cl)C=CC3C1(Cl)C2(Cl)Cl` (centres unmarked) [Heptachlor], the “I50 (inhibits antibody binding by 50%)” value was > 2000 ng.

Regarding `O=C1C2(Cl)C3(Cl)C4(Cl)C(Cl)(Cl)C5(Cl)C3(Cl)C1(Cl)C5(Cl)C24Cl` (centres unmarked) [Kepon], the “I50 (inhibits antibody binding by 50%)” value is listed as > 2000 ng.

`Clc1cc(Cl)c(-c2ccccc2Cl)c(Cl)c1` [2,2',4,6-TCBP]: the “I50 (inhibits antibody binding by 50%)” value is > 200 ng.

Regarding `ClC1=C(Cl)C2(Cl)C3C4CC(C5OC45)C3C1(Cl)C2(Cl)Cl` (centres unmarked) [Endrin], the “I50 (inhibits antibody binding by 50%)” value is listed as > 2000 ng.

As for `Oc1cc(Cl)c(Cl)cc1O` [4,5-Dichlorocatechol], the “I50 (inhibits antibody binding by 50%)” value is > 2000 ng.

The next assay relates to monoclonal antibody DD-4. In words: Competition ELISA with monoclonal antibody DD-4. The format is binding, BALB/c mice. The note with it: DD-4. The procedure:
as §1, §2, §3, §4
1,2,3,6(7),7(8),8(9)-hexa-CD[: the “reactivity of DD-4 with competitor” value was “some reactivity”.

The same assay, now with this note: competitor vs monoclonal antibody DD-4; plate coated with A-triCDD-RSA.
Consider 1,2,3,6(7),7(8),8(9)-hexa-CD[, for which the “I50 (inhibits antibody binding by 50%)” value was > 200 ng.

For the molecule `ClC1C(Cl)C(Cl)C(Cl)C(Cl)C1Cl` (centres unmarked) [BHC], the “I50 (inhibits antibody binding by 50%)” value is > 2000 ng.

With `Clc1ccccc1` [Chlorobenzene], the “I50 (inhibits antibody binding by 50%)” value was > 2000 ng.

In the case of 1,2,3,7,(8)-TCDD, the “I50 (inhibits antibody binding by 50%)” value amounted to 0.3 ng.

Regarding `ClC1=C(Cl)C2(Cl)C3C(Cl)C=CC3C1(Cl)C2(Cl)Cl` (centres unmarked) [Heptachlor], the “I50 (inhibits antibody binding by 50%)” value is given as > 2000 ng.

Regarding `O=C1C2(Cl)C3(Cl)C4(Cl)C(Cl)(Cl)C5(Cl)C3(Cl)C1(Cl)C5(Cl)C24Cl` (centres unmarked) [Kepon], the “I50 (inhibits antibody binding by 50%)” value is reported as > 2000 ng.

On to `Clc1cc(Cl)c(-c2ccccc2Cl)c(Cl)c1` [2,2',4,6-TCBP], for which the “I50 (inhibits antibody binding by 50%)” value is recorded as > 200 ng.

With `ClC1=C(Cl)C2(Cl)C3C4CC(C5OC45)C3C1(Cl)C2(Cl)Cl` (centres unmarked) [Endrin], the “I50 (inhibits antibody binding by 50%)” value was > 2000 ng.

For the molecule `Oc1cc(Cl)c(Cl)cc1O` [4,5-Dichlorocatechol], the “I50 (inhibits antibody binding by 50%)” value is > 2000 ng.

A further assay concerns the target monoclonal antibody DD-5. Kind of assay: Competition ELISA with monoclonal antibody DD-5. The format is binding, Biozzi mice. The following applies: competitor vs monoclonal antibody DD-5; plate coated with A-triCDD-RSA. As to the method: as §1, §2, §3, §4
Turning to 1,2,3,6(7),7(8),8(9)-hexa-CD[, the “I50 (inhibits antibody binding by 50%)” value is listed as > 10 ng.

Regarding `ClC1C(Cl)C(Cl)C(Cl)C(Cl)C1Cl` (centres unmarked) [BHC], the “I50 (inhibits antibody binding by 50%)” value is on record as > 2000 ng.

As for `Clc1ccccc1` [Chlorobenzene], the “I50 (inhibits antibody binding by 50%)” value is reported as > 2000 ng.

1,2,3,7,(8)-TCDD: the “I50 (inhibits antibody binding by 50%)” value was 0.3 ng.

Regarding `ClC1=C(Cl)C2(Cl)C3C(Cl)C=CC3C1(Cl)C2(Cl)Cl` (centres unmarked) [Heptachlor], the “I50 (inhibits antibody binding by 50%)” value is listed as > 2000 ng.

Take `O=C1C2(Cl)C3(Cl)C4(Cl)C(Cl)(Cl)C5(Cl)C3(Cl)C1(Cl)C5(Cl)C24Cl` (centres unmarked) [Kepon]: the “I50 (inhibits antibody binding by 50%)” value was > 2000 ng.

Consider `Clc1cc(Cl)c(-c2ccccc2Cl)c(Cl)c1` [2,2',4,6-TCBP], for which the “I50 (inhibits antibody binding by 50%)” value is > 10 ng.

For `ClC1=C(Cl)C2(Cl)C3C4CC(C5OC45)C3C1(Cl)C2(Cl)Cl` (centres unmarked) [Endrin], the “I50 (inhibits antibody binding by 50%)” value is > 2000 ng.

On to `Oc1cc(Cl)c(Cl)cc1O` [4,5-Dichlorocatechol], for which the “I50 (inhibits antibody binding by 50%)” value was > 2000 ng.

The subject of a further assay is monoclonal antibody DD-1. Kind of assay: Competition ELISA with monoclonal antibody DD-1. The note with it: FIGURE; DD-1; competitor in saline-BSA, dilution series 100-0.2 ppb. The format is binding, Biozzi mice. As to the method: as §1, §2, §3, §4
Consider 1,2,3,7,(8)-TCDD, for which the “concentration at which 50% inhibition occurs (relative ELISA response half of control)” value is reported as “about 4 ppb”.

Still in this assay, the particulars now being: competitor vs monoclonal antibody DD-1; plate coated with A-triCDD-RSA.
With 1,2,3,6(7),7(8),8(9)-hexa-CD[, the “I50 (inhibits antibody binding by 50%)” value was > 200 ng.

For `ClC1C(Cl)C(Cl)C(Cl)C(Cl)C1Cl` (centres unmarked) [BHC], the “I50 (inhibits antibody binding by 50%)” value is reported as 300 ng.

On to `Clc1ccccc1` [Chlorobenzene], for which the “I50 (inhibits antibody binding by 50%)” value is given as > 2000 ng.

Regarding 1,2,3,7,(8)-TCDD, the “I50 (inhibits antibody binding by 50%)” value was 0.15 ng.

In the case of `ClC1=C(Cl)C2(Cl)C3C(Cl)C=CC3C1(Cl)C2(Cl)Cl` (centres unmarked) [Heptachlor], the “I50 (inhibits antibody binding by 50%)” value is on record as > 2000 ng.

`O=C1C2(Cl)C3(Cl)C4(Cl)C(Cl)(Cl)C5(Cl)C3(Cl)C1(Cl)C5(Cl)C24Cl` (centres unmarked) [Kepon]: the “I50 (inhibits antibody binding by 50%)” value is > 2000 ng.

As to `Clc1cc(Cl)c(-c2ccccc2Cl)c(Cl)c1` [2,2',4,6-TCBP], the “I50 (inhibits antibody binding by 50%)” value is reported as > 200 ng.

Consider `ClC1=C(Cl)C2(Cl)C3C4CC(C5OC45)C3C1(Cl)C2(Cl)Cl` (centres unmarked) [Endrin], for which the “I50 (inhibits antibody binding by 50%)” value is > 2000 ng.

As for `Oc1cc(Cl)c(Cl)cc1O` [4,5-Dichlorocatechol], the “I50 (inhibits antibody binding by 50%)” value is reported as 2000 ng.
